Data set [1] is described as follows: Tissue distribution of 3H-chiglitazar in rats. In kind it is in vivo, rat. The note with it: male Wistar rats, single oral dose 12.5 mg kg^−1 3H-labelled, radioactivity AUC0–24. Here is the method:
^3H-chiglitazar was synthesized and provided by the Beijing Institute of Atom Energy with specific activity of 15 Ci mmol^−1 and purity >97%. Tissue distribution of ^3H-chiglitazar in rats was evaluated based on the methods described previously. Briefly, male Wistar rats (~220 g in body weight, 12-week old) were randomly divided into 4 groups (5 per group). After fasted overnight, rats were orally administered with single dose of 12.5 mg kg^−1 of ^3H-chiglitazar (radiation dose 31.7 MBq kg^−1). Rats in different groups were sacrificed at 1.5, 4, 8, and 24 h after dosing. Blood (5–9 mL) was collected via cardiac puncture at the time of sacrifice. […] 1 mL of scintillation fluid was added to each well, and radioactivity was measured by a scintillation counter (Perkin Elmer, Waltham, MA, USA).
Figure 5 Influence on heart weight and tissue distribution of chiglitazar in rats. […] 24 h after the last dosing, animals were sacrificed and the heart weight was evaluated. *P < 0.05 compared with control; n = 5 per group. […] Rats were sacrificed at 1.5, 4, 8, and 24 h after treatment (n = 5 per time point), and various tissues/organs as indicated were taken for radioactivity measurement. The accumulated area under curves through 0 to 24 h (AUC0–24) was calculated based on individual tissue distribution measured at each time point. […] Data are expressed as mean ± SE.

In data set [2] the target is T1, PPARα (Homo sapiens, UniProt Q07869).
T1 sequence (Q07869 1-468): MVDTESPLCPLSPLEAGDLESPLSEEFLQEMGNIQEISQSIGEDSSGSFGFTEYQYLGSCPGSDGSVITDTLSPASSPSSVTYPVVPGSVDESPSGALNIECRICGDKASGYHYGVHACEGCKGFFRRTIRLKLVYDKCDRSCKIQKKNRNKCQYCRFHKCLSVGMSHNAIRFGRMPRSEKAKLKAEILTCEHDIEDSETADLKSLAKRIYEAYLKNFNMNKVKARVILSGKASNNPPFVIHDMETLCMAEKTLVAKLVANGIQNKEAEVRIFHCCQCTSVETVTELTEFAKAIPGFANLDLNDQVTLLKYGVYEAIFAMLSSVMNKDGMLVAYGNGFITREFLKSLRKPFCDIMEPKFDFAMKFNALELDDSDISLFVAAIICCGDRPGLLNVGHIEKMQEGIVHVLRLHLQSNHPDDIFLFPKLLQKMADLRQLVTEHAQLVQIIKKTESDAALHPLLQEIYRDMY
T1 sequence (P19793 1-462 partner): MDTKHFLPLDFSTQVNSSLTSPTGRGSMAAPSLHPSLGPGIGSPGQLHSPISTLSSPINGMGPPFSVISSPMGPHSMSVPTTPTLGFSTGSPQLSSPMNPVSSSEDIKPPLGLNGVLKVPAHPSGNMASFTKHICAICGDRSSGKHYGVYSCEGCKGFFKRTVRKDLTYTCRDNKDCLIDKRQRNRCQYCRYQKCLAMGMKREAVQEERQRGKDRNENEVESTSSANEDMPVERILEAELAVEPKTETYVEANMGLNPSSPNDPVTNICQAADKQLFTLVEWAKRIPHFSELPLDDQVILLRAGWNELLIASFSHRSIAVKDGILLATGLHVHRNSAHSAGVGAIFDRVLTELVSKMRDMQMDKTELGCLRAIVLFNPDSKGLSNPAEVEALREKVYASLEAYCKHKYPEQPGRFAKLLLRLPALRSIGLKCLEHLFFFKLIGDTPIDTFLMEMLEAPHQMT
The data set can be described thus: PPARα transactivation reporter gene assay in SMMC-7721 cells. Format: cell-based.

Data set [3] deals with KKAy mice. As to the kind of experiment: Oral treatment of diabetic KKAy mice (glucose, body weight). In kind it is in vivo, mouse. An excerpt: Male db/db mice (BKS.Cg-m +/+ LEPR^db) in 6-7 weeks were purchased from The Jackson Laboratory (Bar Harbor, ME, USA). Male KKAy and C57BL/6J mice in 8–10 weeks were obtained from the Institute of Animal Science, Chinese Academy of Medical Sciences and Peking Union Medical College (Beijing, China). Animals were randomly sorted into different treatment groups (8–10 per group). […] Plasma glucose levels were examined at various time points by Accu-Chek Advantage II Glucose Strips (Roche Diagnostics, Basel, Switzerland) and measured by Accu-Chek Advantage (Roche Diagnostics). Animals were sacrificed 24 h after the last dosing and abdominal fat pad, liver, and skeletal muscle from KKAy mice and abdominal fat pad from db/db mice were taken for gene expression analysis.
Figure 2 In vivo effects on blood glucose control and insulin sensitization of chiglitazar. […] Plasma glucose (a and b) and insulin (c) levels were measured at the indicated time points. […] Data are expressed as mean ± SE.
Figure 4 Influence in body and abdominal fat pad weights of chiglitazar. […] Changes in body weight were evaluated at the indicated days (b), and the fat pads were weighed from the scarified animals at day 15 (c). ^# P < 0.05 compared with day 0, and *P < 0.05 compared with Ctrl. n = 8 per group for KKAy, and n = 10 per group for db/db. Data are expressed as mean ± SE.

One may read the EC50 as the concentration at which the effect is half-maximal.

For `O=C(c1ccc(F)cc1)c1ccccc1NC(Cc1ccc(OCCn2c3ccccc3c3ccccc32)cc1)C(=O)O` (stereo not drawn) [Chi, 2-[(2-(4-fluorobenzoyl)phenyl)amino]-3-[4-(2-carbazolylethoxy)-phenyl]-propionic acid], in data set [1], the “Tissue distribution: level in kidney, adipose tissue and heart” value is reported as “low levels”; the “Tissue distribution: level in plasma, liver and pancreas” value is listed as “high levels”. Also, in data set [2] (24 h treatment, luciferase reporter, hRXR cotransfected, ia: inactive at 10 μM), a half-maximal response (EC50) required 1.1 ± 0.3 µM. In data set [2] (max response compared with WY at 50 μM), the “PPARα % Max” value turned out to be 142%. Also, the Body weight result in data set [3] (5 and 20 mg kg^−1 oral daily, 12 days, in comparison with rosiglitazone 5 mg kg^−1) is “did not increase”. Besides, in data set [3] (oral daily, 5 to 20 mg kg^−1, 12 days), the “BG (blood glucose) levels” value was “significantly lowered”.

The values above are taken from PMC3486420, “In Vitro and In Vivo Characterizations of Chiglitazar, a Newly Identified PPAR Pan-Agonist” (PPAR Research, 2012).
